A short description of the data set: Plasma exposure (pharmacokinetics) of darunavir and efavirenz after oral administration of formulations. Particulars: for concentration at 1 h / concentration at 2 h: male, Sprague-Dawley, 10 mg/kg, average plasma concentration. As to the method:
In this study, the exposure and distribution of darunavir and efavirenz were evaluated following oral administration in male Sprague-Dawley rats. Four cohorts of 10 rats each were used in this study. The first cohort involved darunavir using the disclosed formulations and the second cohort darunavir in a control formulation. The third cohort involved efavirenz using the disclosed formulations and the fourth cohort efavirenz in a control formulation.
Formulations were administered orally (PO) at 10 mg/kg of darunavir or efavirenz. Following dosing, blood, urine and fecal samples were collected up to 8-hour post dose (groups 1, 3, 5, and 7) or 24-hour post dose (groups 2, 4, 6, and 8). Brain tissue was collected at 8 hours or 24 hours, following the 8 hour or 24-hour urine and feces sample collection. Plasma, urine, feces, and brain tissue concentrations of the analytes were determined by LC-MS/MS. Plasma pharmacokinetic parameters were determined using WinNonlin (v8.0) software.
Plasma, urine, feces, and brain tissue samples were extracted and analyzed using the methods described as follows.
Analytical stock solutions (1.00 mg/mL of the free drug) were prepared in DMSO. Sample Homogenization Brain tissue and feces samples were homogenized with a Virsonic 100 ultrasonic homogenizer. Each brain tissue sample was first weighed, and then an appropriate volume of 20:80 methanol:water was added to make a 2 mL/gram sample. Samples were then homogenized on ice, and stored frozen until analysis. Feces samples were homogenized with 20:80 MeOH:water (8 mL/gram of tissue) prior to extraction. Standard Preparation (Plasma, Urine, and Brain) Standards were prepared in rat plasma containing sodium heparin as the anticoagulant, or in blank tissue homogenate. Working solutions were prepared in 50:50 acetonitrile:water. Working solutions were then added to blank matrix to make calibration standards to final concentrations of 1000, 500, 250, 100, 75.0, 50.0, 25.0, and 10 ng/mL. Standards were treated identically to the study samples. Sample Extraction (Plasma, Urine, Feces, and Brain) Plasma, urine, feces, and brain tissue samples were manually extracted via acetonitrile precipitation in a 96-well plate. Urine samples were diluted a minimum of 5-fold into blank rat plasma prior to extraction. Diluted urine samples were quantified against the rat plasma calibration curve. Brain and feces tissue homogenates were quantified against calibration curves prepared in matched blank tissue homogenate.

Where [1] appears, read: rat, plasma, po, animals given the control formulation, rats.
The mark [2] stands for this setting: rat, plasma, po, test animals (disclosed test formulation), rats.
Setting [3] is: rat, in vivo, po, animals given the control formulation, rats.

On to `O=C1Nc2ccc(Cl)cc2[C@@](C#CC2CC2)(C(F)(F)F)O1` [efavirenz], for which, under setting [1], the concentration at 1 h is roughly 139 ng/mL and the concentration at 2 h was roughly 117 ng/mL. Under setting [2], this compound displayed a concentration at 1 h of roughly 133 ng/mL and a concentration at 2 h of roughly 142 ng/mL. Besides, the “plasma concentration with disclosed compositions versus control formulations” value (rat, in vivo, po) was “higher levels than control formulations”.

As to `CC(C)CN(C[C@@H](O)[C@H](Cc1ccccc1)NC(=O)O[C@H]1CO[C@H]2OCC[C@H]21)S(=O)(=O)c1ccc(N)cc1` [darunavir], under setting [3], the concentration at 1 h is roughly 185 ng/mL and the concentration at 2 h was roughly 63 ng/mL. This compound came in with a concentration at 2 h (rat, in vivo, po, test animals (disclosed test formulation), rats) of roughly 153 ng/mL. In addition, the “plasma concentration with disclosed compositions versus control formulations” value (oral, rats, disclosed formulation compared with control formulation) is recorded as “double the plasma concentration”.

The values are drawn from patent publication US20210330683A1, “COMPOSITIONS AND METHODS FOR ENHANCED DELIVERY OF ANTIVIRAL AGENTS” (POVIVA CORP., priority 2020, published 2021).
